Data published in patent EP4206196A1, “PYRIMIDINE SUBSTITUTED DERIVATIVES AS TYK2 INHIBITORS” (Almirall S.A., priority 2021, dated 2023).

Columns and labels:
[1] = test system: STAT1/3 through TYK2/JAK1; experiment: IFNa induced STAT phosphorylation in HEK293 cells (SIE-bla reporter gene); type: cell-based; conditions: Homo sapiens, HEK293; HEK293T-sie-bla cells, IFNa at EC80, 4 hours; read-out: Inhibition of IFNa induced STAT phosphorylation HEK293 cells IC50
Protocol: Stimulation of HEK293T-sie-bla cells with interferon alpha (INFa) activates the signaling pathway of STAT1/3 through TYK2/JAK1. In this assay, measurement of the activity of the reporter gene […]-lactamase expression was used as the readout.
CellSensorTM SIE-bla HEK293T cell line were purchased from Thermo Fisher Scientific (ref. #K1649B) and cultured as specified by the provider. A number of 30.000 cells per well (40 µl) were plated in a 384-well plate (Corning ref.# 3712) and cultured overnight at 37°C with 5% CO2 in a complete Optimem media (ThermoFisher ref. #11058-021) containing 0.5% (v/v) heat inactivated dialyzed FBS (Life Technologies ref. #26400044), 10 µM non-essential aminoacids NEAA (Sigma ref. #M7145), 100 µM Sodium Pyruvate (Gibco ref. #11360-039) and 100 U/mL Penicillin (Sigma ref. #P0781). Compounds were initially dissolved in 100% DMSO. Compound curves were then prepared using a 1/5 serial dilution (10 dilutions). The dilutions were directly diluted in complete Optimem media at 40-fold their final concentration in 20% DMSO. IFNa initial solution (R&D systems ref. #11100-1) was prepared at 10-fold its EC80 in complete Optimem media. Compounds and IFNa were added simultaneously to the wells with cells and incubated during 4 hours at 37°C (the final DMSO was 0.1%). The […]-lactamase substrate (LifeTechnologies ref.#K1138) was prepared at 6-fold its final concentration as specified by the provider. Then 10 µL of the mixture was added to the wells to stop the stimulation. Plate was left in the dark over-night. Then a FRET reading was performed on an appropriate plate reader.
All experiments were analysed using an ExcelFit template and the four-parameter log equation. […] TABLE 2: IC50 Inhibitions of IFNa induced STAT phosphorylation in HEK293 cells

[2] = molecular target: T1, TYK2 (JH2domain-pseudokinase) (Homo sapiens, UniProt P29597); experiment: TYK2 JH2 domain binding assay (KINOMEscan)
T1 construct: TYK2 (JH2domain-pseudokinase)-tagged T7 phage strains were prepared in an E. coli host derived from the BL21 strain; made in house; host or cells: E. coli BL21-derived host (T7 phage) or HEK-293 cells
T1 sequence (P29597 589-875 limits assumed): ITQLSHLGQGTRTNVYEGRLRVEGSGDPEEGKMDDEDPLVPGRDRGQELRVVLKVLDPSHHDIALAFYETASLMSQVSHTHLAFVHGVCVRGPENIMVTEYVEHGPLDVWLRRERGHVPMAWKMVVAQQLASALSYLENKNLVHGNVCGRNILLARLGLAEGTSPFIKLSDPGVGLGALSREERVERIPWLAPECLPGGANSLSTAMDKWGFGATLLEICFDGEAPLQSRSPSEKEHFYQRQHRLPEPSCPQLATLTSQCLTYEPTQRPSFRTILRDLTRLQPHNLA
Protocol: TYK2 (JH2domain-pseudokinase) KINOMEscan assay. For the assay, TYK2 (JH2domain-pseudokinase)-tagged T7 phage strains were prepared in an E. coli host derived from the BL21 strain.E. coli were grown to log-phase and infected with T7 phage and incubated with shaking at 32°C until lysis. The lysates were centrifuged and filtered to remove cell debris. The remaining TYK2 (JH2domain-pseudokinase) were produced in HEK-293 cells and subsequently tagged with DNA for qPCR detection. Streptavidin-coated magnetic beads were treated with biotinylated small molecule ligands for 30 minutes at room temperature to generate affinity resins for kinase assays. The liganded beads were blocked with excess biotin and washed with blocking buffer (SeaBlock (Pierce), 1% BSA, 0.05% Tween 20, 1 mM DTT) to remove unbound ligand and to reduce non-specific binding. Binding reactions were assembled by combining TYK2 (JH2domain-pseudokinase), liganded affinity beads, and test compounds in 1x binding buffer (20% SeaBlock, 0.17x PBS, 0.05% Tween 20, 6 mM DTT). Test compounds were prepared as 111X stocks in 100% DMSO. Kds were determined using an 11-point 3-fold compound dilution series with three DMSO control points. All compounds for Kd measurements are distributed by acoustic transfer (non-contact dispensing) in 100% DMSO. The compounds were then diluted directly into the assays such that the final concentration of DMSO was 0.9%. All reactions performed in polypropylene 384-well plate. Each was a final volume of 0.02 ml. The assay plates were incubated at room temperature with shaking for 1 hour and the affinity beads were washed with wash buffer (1x PBS, 0.05% Tween 20). The beads were then re-suspended in elution buffer (1x PBS, 0.05% Tween 20, 0.5 µM non-biotinylated affinity ligand) and incubated at room temperature with shaking for 30 minutes. The kinase concentration in the eluates was measured by qPCR. […]
An 11-point 3-fold serial dilution of each test compound was prepared in 100% DMSO at 100x final test concentration and subsequently diluted to 1x in the assay (final DMSO concentration = 1%). Most Kds were determined using a compound top concentration = 30,000 nM. If the initial Kd determined was < 0.5 nM (the lowest concentration tested), the measurement was repeated with a serial dilution starting at a lower top concentration.
Curves were fitted using a non-linear least square fit with the Levenberg-Marquardt algorithm. […] TABLE 1: Kd Affinities for Tyk2 JH2 Domain Binding Assay.

| SMILES | IC50 [1] [nM] | Kd [2] [nM] |
| --- | --- | --- |
| COc1c(Nc2cc(Nc3cc(C)nc(C)n3)ncn2)cccc1-c1cnn(C)c1 [Example 15, N4-(2,6-dimethylpyrimidin-4-yl)-N6-[2-methoxy-3-(1-methylpyrazol-4-yl)phenyl]pyrimidine-4,6-diamine] | 10 to 100 | 0.2 to 1 |
| COc1c(C#N)cccc1Nc1cc(Nc2cc(C)nc(C)n2)ncn1 [Example 16, 3-[[6-[(2,6-dimethylpyrimidin-4-yl)amino]pyrimidin-4-yl]amino]-2-methoxy-benzonitrile] | > 1000 | 1 to 10 |
| COc1c(Nc2cc(Nc3cc(C)nc(C)n3)ncn2)cccc1C(F)(F)F [Example 18, N6-(2,6-dimethylpyrimidin-4-yl)-N4-[2-methoxy-3-(trifluoromethyl)phenyl] pyrimidine-4,6-diamine] | > 1000 | 1 to 10 |
| COc1c(Nc2cc(Nc3cc(C)nc(C)n3)ncn2)ccc(F)c1F [Example 19, N4-(3,4-difluoro-2-methoxy-phenyl)-N6-(2,6-dimethylpyrimidin-4-yl)pyrimidine-4,6-diamine] | > 1000 | 1 to 10 |
| COc1cccc(Nc2cc(Nc3cc(C)nc(C)n3)ncn2)c1OC [Example 20, N4-(2,3-dimethoxyphenyl)-N6-(2,6-dimethylpyrimidin-4-yl)pyrimidine-4,6-diamine] | 100 to 1000 | 0.2 to 1 |
| COc1cc(F)ccc1Nc1cc(Nc2cc(C)nc(C)n2)ncn1 [Example 21, N4-(2,6-dimethylpyrimidin-4-yl)-N6-(4-fluoro-2-methoxy-phenyl)pyrimidine-4,6-diamine] | > 1000 | 1 to 10 |
| COc1cc(C(F)(F)F)ccc1Nc1cc(Nc2cc(C)nc(C)n2)ncn1 [Example 22, N6-(2,6-dimethylpyrimidin-4-yl)-N4-[2-methoxy-4-(trifluoromethyl)phenyl]pyrimidine-4,6-diamine] | 100 to 1000 | > 10 |
| COc1ccccc1Nc1cc(Nc2cc(C)nc(C)n2)ncn1 [Example 23, N6-(2,6-dimethylpyrimidin-4-yl)-N4-(2-methoxyphenyl)pyrimidine-4,6-diamine] | 100 to 1000 | 1 to 10 |
| Cc1cc(Nc2cc(Nc3ccc(-c4cncn4C)cc3N(C)S(C)(=O)=O)ncn2)nc(C)n1 [Example 24, N-[2-[[6-[(2,6-dimethylpyrimidin-4-yl)amino]pyrimidin-4-yl]amino]-5-(3-methylimidazol-4-yl)phenyl]-N-methyl-methanesulfonamide] | 10 to 100 | < 0.2 |
| COc1cc(C#N)cnc1Nc1cc(Nc2cc(C)nc(C)n2)ncn1 [Example 27, 6-[[6-[(2,6-dimethylpyrimidin-4-yl)amino]pyrimidin-4-yl]amino]-5-methoxy-pyridine-3-carbonitrile] | > 1000 | > 10 |
| Cc1cc(Nc2cc(Nc3ccccc3P(C)(C)=O)ncn2)nc(C)n1 [Example 28, 4-N-(2-dimethylphosphorylphenyl)-6-N-(2,6-dimethylpyrimidin-4-yl)pyrimidine-4,6-diamine] | > 1000 | 0.2 to 1 |
| COc1c(Nc2cc(Nc3cc(C)nc(C)n3)ncn2)cccc1-c1nc(C(F)(F)F)n(C)n1 [Example 29, N6-(2,6-dimethylpyrimidin-4-yl)-N4-[2-methoxy-3-[1-methyl-5-(trifluoromethyl)-1,2,4-triazol-3-yl]phenyl]pyrimidine-4,6-diamine] | > 1000 | 1 to 10 |
| COCc1nc(-c2cccc(Nc3cc(Nc4cc(C)nc(C)n4)ncn3)c2OC)no1 [Example 30, N4-(2,6-dimethylpyrimidin-4-yl)-N6-[2-methoxy-3-[5-(methoxymethyl)-1,2,4-oxadiazol-3-yl]phenyl]pyrimidine-4,6-diamine] | 100 to 1000 | 0.2 to 1 |
| COc1c(Nc2cc(Nc3cc(C)nc(C)n3)ncn2)cccc1-c1ncc(F)cn1 [Example 31, N4-(2,6-dimethylpyrimidin-4-yl)-N6-[3-(5-fluoropyrimidin-2-yl)-2-methoxy-phenyl]pyrimidine-4,6-diamine] | 100 to 1000 | 0.2 to 1 |
| COc1c(Nc2cc(Nc3cc(C)ncn3)ncn2)cccc1-c1ncn(C)n1 [Example 33, N6-[2-methoxy-3-(1-methyl-1,2,4-triazol-3-yl)phenyl]-N4-(6-methylpyrimidin-4-yl)pyrimidine-4,6-diamine] | 10 to 100 | < 0.2 |
| [2H]C([2H])([2H])N(c1ccccc1Nc1cc(Nc2cc(C)nc(C)n2)ncn1)S(C)(=O)=O [Example 34, N-[2-[[6-[(2,6-dimethylpyrimidin-4-yl)amino]pyrimidin-4-yl]amino]phenyl]-N-(trideuteriomethyl)methanesulfonamide] | < 10 | < 0.2 |
| COc1c(Nc2cc(Nc3cc(C)nc(C)n3)ncn2)cccc1-c1cc(C(F)(F)F)nn1C [Example 36, N6-(2,6-dimethylpyrimidin-4-yl)-N4-[2-methoxy-3-[2-methyl-5-(trifluoromethyl)pyrazol-3-yl]phenyl]pyrimidine-4,6-diamine] | > 1000 | 1 to 10 |
| COc1c(Nc2cc(Nc3cc(C)nc(C)n3)ncn2)cccc1-c1nc(C)n(CC(F)(F)F)n1 [Example 38, N6-(2,6-dimethylpyrimidin-4-yl)-N4-[2-methoxy-3-[5-methyl-1-(2,2,2-trifluoroethyl)-1,2,4-triazol-3-yl]phenyl]pyrimidine-4,6-diamine] | 10 to 100 | 0.2 to 1 |
| COc1c(Nc2cc(Nc3cc(C)nc(C)n3)ncn2)cccc1-c1nc(C)n(C)n1 [Example 39, N6-(2,6-dimethylpyrimidin-4-yl)-N4-[3-(1,5-dimethyl-1,2,4-triazol-3-yl)-2-methoxy-phenyl]pyrimidine-4,6-diamine] | 100 to 1000 | 0.2 to 1 |
| COc1c(Nc2cc(Nc3cc(C)nc(C)n3)ncn2)cccc1-c1nc(C)nn1C [Example 40, N6-(2,6-dimethylpyrimidin-4-yl)-N4-[3-(2,5-dimethyl-1,2,4-triazol-3-yl)-2-methoxy-phenyl]pyrimidine-4,6-diamine] | 100 to 1000 | 1 to 10 |
| COc1c(Nc2cc(Nc3cc(C)nc(C)n3)ncn2)cccc1-c1nnn(C)n1 [Example 41, N4-(2,6-dimethylpyrimidin-4-yl)-N6-[2-methoxy-3-(2-methyltetrazol-5-yl)phenyl]pyrimidine-4,6-diamine] | 10 to 100 | < 0.2 |
| COc1c(Nc2cc(Nc3cc(C)nc(C)n3)ncn2)cccc1-c1ccnnc1 [Example 42, N6-(2,6-dimethylpyrimidin-4-yl)-N4-(2-methoxy-3-pyridazin-4-yl-phenyl)pyrimidine-4,6-diamine] | > 1000 | 1 to 10 |
| COc1c(Nc2cc(Nc3cc(C)nc(C)n3)ncn2)cccc1-c1ncn(C2COC2)n1 [Example 43, N4-(2,6-dimethylpyrimidin-4-yl)-N6-[2-methoxy-3-[1-(oxetan-3-yl)-1,2,4-triazol-3-yl]phenyl]pyrimidine-4,6-diamine] | 100 to 1000 | 0.2 to 1 |
